Laboratory results from publication PMC3125149, “SCYX-7158, an Orally-Active Benzoxaborole for the Treatment of Stage 2 Human African Trypanosomiasis” (PLoS Neglected Tropical Diseases, 2011).

Assays:
[1] = test system: T. b. brucei 427; experiment: Time-kill assay (ATP content, CellTiter Glo); format: cell-based
Description: The assessment of oxaborole-mediated killing of T. b. brucei in vitro was conducted using the CellTiter Glo kit (Promega, Inc., Madison, WI) to measure trypanosome ATP content as a real-time indicator of viability. Test compounds were serially diluted from 5 to 0.01 µg/mL into white wall-clear bottom 96-well plates (Corning Inc., Lowell, MA) containing HMI-9 media. 1×10^4 trypanosomes were added to each well. At specified intervals, the CellTiter Glo reagent was added to lyse the parasites and the plates were incubated for 10 min in the dark. Luminescence was quantified using an EnVision plate reader. All determinations were done in duplicate. Time-kill parameters were determined from plots of parasite viability versus incubation time for each concentration tested.

[2] = test system: T. b. brucei; experiment: Effect of serum on trypanocidal activity; format: cell-based; details: 25% mouse serum or 50% bovine serum
Description: Compounds to be tested were serially diluted in DMSO and added to 96-well plates to give final concentrations ranging from 5 to 0.01 µg/mL. T. b. brucei parasites in the log phase of growth were diluted in HMI-9 media and added to each well for a final concentration of 1×10^4 parasites per well. For the sensitivity assays using T. b. rhodesiense and T. b. gambiense, pararasites were cultured in MEM supplemented with Baltz components (8), diluted in the aforementioned culture media, and added to each well at a density of 1×10^3 cells/well. The final concentration of DMSO was 0.5% and the total volume was 100 µL/well. After a 72 h incubation, resazurin (Sigma-Aldrich, St. Louis, MO) was added to each well [20 µL of 25 mg/100 mL stock in phosphate buffered saline (PBS)] and incubated for an additional 4–6 h.[22] To assess cell viability, fluorescence was quantified using an EnVision Multilabel Plate Reader (Perkin Elmer, Waltham, MA) at an excitation wavelength of 530 nm and emission of 590 nm. Triplicate data points were averaged to generate sigmoidal dose-response curves and determine IC50 values using XLfit curve fitting software from IDBS (Guilford, UK). The IC50 is defined as the amount of compound required to decrease parasite or cell viability by 50% compared to those grown in the absence of the test compound. […]

[3] = Brain tissue binding by rapid equilibrium dialysis; format: in vitro ADME; details: mouse brain tissue; independent of concentration
Description: Binding to human or mouse plasma proteins or mouse brain homogenate was determined by rapid equilibrium dialysis (RED) (Pierce, Rockford, IL) using a 48-well plate-based format according to the manufacturer's instructions. Briefly, test compound at the required concentrations was added to fresh human or mouse plasma (Bioreclamation, Liverpool, NY) or freshly prepared mouse brain homogenate. Duplicate aliquots of each sample were transferred into the sample chambers of the RED devices, and dialysis buffer (BupH PBS) was added to the buffer chambers. The plates were sealed and incubated at 37°C for 4 h. After dialysis, samples collected from the buffer and tissue chambers were treated with ice-cold methanol (3 volumes for plasma, 4 volumes for brain) to precipitate proteins. The treated samples were centrifuged for 10 min at 3×10^3 g at 15°C. The supernatants were assayed for test compound by LC-MS/MS. Calibration standards and quality control samples were prepared in matched matrix and assayed with samples. Values for unbound and bound fractions and mass balance were calculated. Concordance of binding for each batch of plasma was confirmed by assay of warfarin, imipramine and carbamezapine. Acceptance criterion for mass balance was 70–120%.

[4] = test system: T. b. brucei 427; experiment: Reversibility of trypanocidal effects (wash-out); format: cell-based; details: at about 5 times the IC50
Description: To establish the time and concentration required to cause persistent or irreversible effects by oxaboroles, T. b. brucei parasites were assessed for their ability to recover from transient exposure to test compounds. Trypanosomes were seeded in clear 96-well V-bottom plates at a density of 1×10^5 parasites per well and incubated with serially diluted test compound (from 10 to 0.02 µg/mL). One plate was prepared for each time point. At the designated time, a plate was removed from the incubator and spun at 2,600 g for 5 min to sediment the parasites. The supernatant was aspirated and 100 µL of warmed HMI-9 media was added to each well. The wash was repeated twice more. The parasites were resuspended in 100 µL of warmed media and 20 µL of this suspension was added to 80 µL of HMI-9 media in triplicate plates. Following a 72 h incubation, resazurin was added and trypanocidal activity determined as described for the in vitro sensitivity assay.

[5] = test system: L929 mouse fibroblast cells; experiment: Mammalian cell cytotoxicity; format: cell-based
Description: T. b. brucei was cultured in complete HMI-9 medium,[20] which contains 10% fetal bovine serum (FBS) (Invitrogen, Carlsbad, CA), 10% Serum Plus medium (SAFC Biosciences, Lenexa, KS), and 100 units/mL penicillin and 0.1 mg/mL streptomycin. The trypanosomes were propagated in T-25 vented cap flasks (Corning Inc., Lowell, MA) at 37°C and 5% CO2 with humidity. To ensure log growth phase, trypanosomes were sub-cultured at appropriate dilutions (typically 1∶100) every 2–3 days in fresh HMI-9 medium. T. b. rhodesiense parasites were grown in MEM medium with Earle's salts supplemented with 15% horse serum. For T. b. gambiense, the MEM medium was supplemented with 5% heat-inactivated fetal calf serum (FCS) and 15% human serum.[21] L929 mouse fibroblast cells (ATCC CCL1, American Type Culture Collection, Rockville, MD) were used to determine parasite versus mammalian cell selectivity. Cells were cultured in Dulbecco's Modified Eagle Medium (DMEM), supplemented with 10% FBS, L-glutamine and 100 units/mL penicillin and 0.1 mg/mL streptomycin. MDCKII-hMDR1 cells were generously provided by P. Borst at the Netherlands Kancer Institute. Cells were cultured in DMEM with Glutamax, 10% (v/v) FBS, and 100 units/mL penicillin and 0.1 mg/mL streptomycin. Cell monolayers were fed with cell culture media 24 h after seeding and used for permeability studies 3 days later. […]

CC1(C)OB(O)c2cc(NC(=O)c3ccc(F)cc3C(F)(F)F)ccc21 [SCYX-7158]
reduction in viability ([1]; within 8 h of exposure at 1.25 µg/mL (about 2 times the MIC)): greater than 50% | parasites killed ([1]; within 24 h of exposure, 1.25 µg/mL): > 99% | attenuation of in vitro IC50 [2]: 3–4 fold | fubrain [3]: ~5% | exposure time sufficient to produce irreversible effects on trypanosome survival [4]: 10 to 12 h | IC50 ([5]; Mouse L929 fibroblast, n = 4): > 50 µg/mL | inhibition of cell proliferation ([5]; drug concentrations up to 50 µg/mL): no significant inhibition
